Measured values: patent EP0754455A1, “PHARMACEUTICAL COMPOSITIONS BASED ON AMINOMETHYLINDOLES AND THEIR THERAPEUTICAL APPLICATION AS NEUROPROTECTORS IN PARKINSON AND ALZHEIMER DISEASES” (CONSEJO SUPERIOR INVESTIGACIONES CIENTIFICAS (CSIC), priority 1995, dated 1996)
Like-named read-outs stand apart in the source and are kept apart here.

How the values were obtained:
MAO-A [1] = biological target: T1, MAO-A (Rattus norvegicus, UniProt P21396); experiment: biochemical; format: biochemical, Sprague-Dawley rat
T1 construct: human and rat tissue to obtain the isolated forms of monoamine oxidase A and B; from tissue
T1 sequence (P21396 1-526): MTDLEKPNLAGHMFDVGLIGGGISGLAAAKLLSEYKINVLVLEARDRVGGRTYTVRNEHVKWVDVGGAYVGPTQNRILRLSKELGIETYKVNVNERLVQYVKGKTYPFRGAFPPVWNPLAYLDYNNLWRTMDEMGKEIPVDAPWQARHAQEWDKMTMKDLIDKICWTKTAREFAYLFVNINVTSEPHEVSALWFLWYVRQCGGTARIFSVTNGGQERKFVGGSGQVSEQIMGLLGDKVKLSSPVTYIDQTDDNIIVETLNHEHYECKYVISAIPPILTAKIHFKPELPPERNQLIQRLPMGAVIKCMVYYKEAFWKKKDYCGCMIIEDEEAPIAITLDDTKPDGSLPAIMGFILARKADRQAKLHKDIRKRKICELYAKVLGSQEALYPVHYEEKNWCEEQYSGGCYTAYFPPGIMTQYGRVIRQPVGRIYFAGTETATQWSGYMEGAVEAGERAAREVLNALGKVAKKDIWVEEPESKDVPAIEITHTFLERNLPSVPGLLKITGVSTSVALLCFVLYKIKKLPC
Description: (§1) The mitochondrial portion of Sprague-Dawley rat was used to determine the MAO-A and MAO-B activity.
(§2) Determinations were made of the comparative MAO-A and MAO-B activity inhibition curves of the various compounds under study at time 0 and 30 min. by measuring the remaining activity to 5-HT and PEA as substrates.

MAO-B [2] = biological target: T2, MAO-B (Rattus norvegicus, UniProt P19643); experiment: MAO-B inhibition, mitochondrial portion of rat (IC50, time dependence, irreversibility), substrate PEA; format: biochemical, Sprague-Dawley rat; conditions: for IC50: MAO-B (lines B..), substrate PEA, rat mitochondria
T2 construct: from tissue; host or cells: Sprague-Dawley rat liver, mitochondrial fraction
T2 sequence (P19643 1-520): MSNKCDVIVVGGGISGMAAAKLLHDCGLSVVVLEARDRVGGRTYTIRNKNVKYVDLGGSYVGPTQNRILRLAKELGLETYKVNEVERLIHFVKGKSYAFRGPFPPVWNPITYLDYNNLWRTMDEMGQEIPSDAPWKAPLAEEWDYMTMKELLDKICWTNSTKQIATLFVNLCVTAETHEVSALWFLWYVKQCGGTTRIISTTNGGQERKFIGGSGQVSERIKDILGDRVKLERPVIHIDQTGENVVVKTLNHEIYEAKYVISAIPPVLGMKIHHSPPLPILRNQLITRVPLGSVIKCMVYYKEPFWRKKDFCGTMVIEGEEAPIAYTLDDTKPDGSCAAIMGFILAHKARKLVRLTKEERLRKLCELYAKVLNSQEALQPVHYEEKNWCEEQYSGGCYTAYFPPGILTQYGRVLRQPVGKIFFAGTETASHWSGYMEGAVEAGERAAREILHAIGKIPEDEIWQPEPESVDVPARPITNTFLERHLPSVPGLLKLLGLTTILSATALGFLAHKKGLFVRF
Description: as §1, §2

MAO-A [3] = biological target: T1, MAO-A; experiment: Kinetic parameters of suicide-type inhibition, MAO-A; format: biochemical, Sprague-Dawley rat
Description: Based on the apparent velocity constants of the first order (kapp) obtained for each inhibitor, calculations were made of the K1 and K^1c at (according to the method described by M. Avila et al. 1993, Biochem Pharmac 45, 2231-2237). K1 is the affinity constant of the first stage of the reaction and K1 MAO-A / K1 MAO-B the expression of the selectivity.
K^1cat is the velocity constant for the formation of the covalent irreversible complex during the second stage of the process. To compare the values of these constants towards the two forms of MAO, we express the inhibition efficacy as the ratio K^1cat/K1. The value of these constants (see Tables 2 and 3), is the result of three different experiments, with their corresponding SEM.

MAO-B [4] = biological target: T3, MAO-B (Homo sapiens, UniProt P27338); experiment: MAO-B inhibition in homogenated human cerebral cortex; format: biochemical
T3 construct: performed using homogenated human cerebral cortex obtained from autopsies; from tissue; host or cells: post-mortem human cerebral cortex homogenate
T3 sequence (P27338 1-520): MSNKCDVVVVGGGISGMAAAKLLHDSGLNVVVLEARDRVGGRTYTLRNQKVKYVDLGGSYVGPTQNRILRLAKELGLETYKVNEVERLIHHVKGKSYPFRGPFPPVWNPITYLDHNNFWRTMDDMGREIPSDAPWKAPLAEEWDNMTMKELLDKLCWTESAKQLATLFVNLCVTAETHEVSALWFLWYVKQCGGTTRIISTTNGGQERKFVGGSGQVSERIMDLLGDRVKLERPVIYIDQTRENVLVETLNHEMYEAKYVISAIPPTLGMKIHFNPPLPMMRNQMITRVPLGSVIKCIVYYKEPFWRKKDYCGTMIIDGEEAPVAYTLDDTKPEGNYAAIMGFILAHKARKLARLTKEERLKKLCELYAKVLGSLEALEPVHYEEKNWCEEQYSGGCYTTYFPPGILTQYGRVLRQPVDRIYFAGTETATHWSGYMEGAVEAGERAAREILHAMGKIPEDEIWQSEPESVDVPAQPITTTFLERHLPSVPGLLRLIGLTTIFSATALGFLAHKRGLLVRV
Description: They were provided by Dr. Fco Javier González Oliván (Forensic Anatomic Institute of the Hospital Clínico Provincial in Barcelona).

dopamine carrier = biological target: T4, dopamine carrier (Homo sapiens, UniProt Q01959); experiment: Dopamine carrier inhibition in purified synaptosomes of human caudate; format: biochemical; conditions: human caudate synaptosomes, dopamine (DA) 0.1 µM; read-out: IC50(max)
T4 construct: This assay was carried out in purified synaptosomes of human caudate; from tissue; host or cells: post-mortem human caudate, purified synaptosomes
T4 sequence (Q01959 whole entry): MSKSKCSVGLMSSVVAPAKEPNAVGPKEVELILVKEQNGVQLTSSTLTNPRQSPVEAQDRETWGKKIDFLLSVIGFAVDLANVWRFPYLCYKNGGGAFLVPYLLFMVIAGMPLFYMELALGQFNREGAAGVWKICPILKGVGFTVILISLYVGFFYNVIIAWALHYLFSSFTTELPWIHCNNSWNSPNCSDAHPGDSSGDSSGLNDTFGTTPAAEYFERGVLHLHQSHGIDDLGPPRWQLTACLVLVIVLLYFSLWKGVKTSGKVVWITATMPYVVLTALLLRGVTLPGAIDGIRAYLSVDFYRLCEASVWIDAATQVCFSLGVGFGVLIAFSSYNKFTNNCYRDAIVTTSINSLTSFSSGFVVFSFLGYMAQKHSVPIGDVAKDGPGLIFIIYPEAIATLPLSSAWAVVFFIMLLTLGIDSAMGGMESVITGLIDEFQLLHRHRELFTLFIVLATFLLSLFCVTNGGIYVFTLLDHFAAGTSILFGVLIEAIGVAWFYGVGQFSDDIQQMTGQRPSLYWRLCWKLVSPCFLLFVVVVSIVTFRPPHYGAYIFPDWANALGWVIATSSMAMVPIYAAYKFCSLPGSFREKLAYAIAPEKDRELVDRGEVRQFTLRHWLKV
Description: This assay was carried out in purified synaptosomes of human caudate obtained using the same method as described by Rodríguez et al. 1987 Biochem Pharmac 36, 974-976.
The studies were carried out with the same inhibitors used in the rat tissue. The dopamine (DA) concentration was 0.1 µM, a value chosen from the kinetic constants obtained.

ibotenic acid = experiment: Protection against the neurotoxicity of ibotenic acid (brain acetylcholine); format: in vivo, Sprague-Dawley rats; conditions: homogenised rat brain; 3 mg/Kg i.p. 2 h before intracerebroventricular ibotenic acid; ibotenic acid alone 3%; depending on the dose
Description: One group of Sprague-Dawley rats was treated with compound FA-73 (3 mg/Kg, i.p.) followed two hours later by an stereotaxic injection of ibotenic acid into the cerebral ventricles at a dose that would induce an Alzheimer type of pathology. After sacrificing the animals, determinations were made of the acetylcholine (AC) in the homogenised brains.

SMILES: C#CCNCc1cc2cc(OCc3ccccc3)ccc2[nH]1 [FA-73]
- IC50 (MAO-A [1]): 15800 nM
- dependence of the inhibition on the incubation time (MAO-A [1]; MAO-A): drop in the formation of product as a function of the time of incubation
- irreversibility of the inhibition process (MAO-A [1]; MAO-A, inhibitor concentrations close to the IC50): irreversibility
- IC50 (MAO-A [1]; read-out: IC50 30 min., MAO-A (lines A..), substrate 5-HT, 30 min incubation, rat mitochondria): 1250 nM
- IC50 (MAO-B [2]; IC50 0 min, 0 min incubation): 100 nM
- IC50 (MAO-B [2]; IC50 30 min., 30 min incubation): 15 nM
- dependence of the inhibition on the incubation time (MAO-B [2]; MAO-B): drop in the formation of product as a function of the time of incubation
- irreversibility of the inhibition process (MAO-B [2]; MAO-B, inhibitor concentrations close to the IC50): irreversibility
- Ki (MAO-A [3]; MAO-A (A..), affinity constant of the first stage, three experiments ± SEM, read-out: K1): 800 nM
- K^1cat / K1(10^-3) (MAO-A [3]; MAO-A, inhibition efficacy): 0.1 10^-3
- K^1cat (MAO-A [3]; MAO-A, velocity constant for formation of the covalent irreversible complex, ± SEM): 0.087 ± 0.006 min⁻¹
- IC50 (MAO-B [4]): 200 nM
- IC50 (dopamine carrier): 360 nM
- acetylcholine level (ibotenic acid): up to 85 % of the control
